The values that follow come from patent US20100311714A1, “1H-IMIDAZO[4,5-c]QUINOLINONE COMPOUNDS” (priority 2009, published 2010).

Series [1] in a line: High-throughput equilibrium solubility at pH 6.8. The series is classed as physicochemical. As to conditions: pH 6.8, aqueous buffer, thermodynamic from solid; read-out: HT-Eq Sol/pH 6.8. An excerpt:
The physicochemical properties of relevance for the absorption of the compound, such as the solubility and the membrane permeability, especially at a pH close to neutral pH can be measured using the procedure as described by L. ZHOU et al. in JOURNAL OF PHARMACEUTICAL SCIENCES, VOL. 96, NO. 11, p. 3052-3071 (2007) for the solubility at pH 6.8 and the procedure as described by F. Wohnsland and B. Faller in Journal of Medicinal Chemistry Vol 44, p. 923-930 (2001) for the Parallel Artificial Membrane Permeability Assay (PAMPA) at pH 6.8.

The next series has as its target T1, PI3K alfa (Homo sapiens, UniProt P42336).
T1 construct: His tag (C); made in house; host or cells: baculovirus BV1075; Tn5 (Trichoplusia ni) or TiniPro insect cells
The series is described as follows: PI3K alpha kinase assay (Kinase-Glo luminescence). The series is classed as biochemical. On the procedure:
(§1) In a more preferred assay, the kinase reaction is performed in a final volume of 10 μL per well of a low volume non binding CORNING, 384 well black plate (Cat. No. #3676). The final concentrations of ATP and phosphatidyl inositol (PI) in the assay are 1 μM and 10 μg/mL respectively. The reaction is started by the addition of ATP.
(§2) The components of the assay are added per well as follows:
(§3) 50 nL test compounds in 90% DMSO per well, in columns 1-20, 8 concentrations (⅓ and 1/3.33 serial dilution step) in single. • Low control: […] of 90% DMSO in half the wells of columns 23-24 (0.45% in final). • High control: 50 nL of reference compound (e.g. compound of Example 7 in WO 2006/122806) in the other half of columns 23-24 (2.5 μM in final). • Standard: 50 nL of reference compound as just mentioned diluted as the test compounds in columns 21-22 • 20 mL ‘buffer’ are prepared per assay: • 200 μL of 1M TRIS HCl pH7.5 (10 mM in final) • 60 μL of 1M MgCl2 (3 mM in final) • 500 μL of 2M NaCl (50 mM in final) • 100 μL of 10% CHAPS (0.05% in final) • 200 μL of 100 mM DTT (1 mM in final) • 18.94 mL of nanopure water • 10 mL ‘PI’ are prepared per assay: • 200 μL of 1 mg/ml L-alpha-Phosphatidylinositol (Liver Bovine, Avanti Polar Lipids Cat. No. 840042C MW=909.12) prepared in 3% OctylGlucoside (10 μg/ml in final) • 9.8 mL of ‘buffer’ • 10 mL ‘ATP’ are prepared per assay: • 6.7 μL of 3 mM stock of ATP giving a final concentration of 1 μM per well • 10 mL of ‘buffer’ • 2.5 mL of each PI3K construct are prepared per assay in ‘PI’ with the following final concentration: • 10 nM PI3K alfa EMV B1075 • 25 nM beta EMV BV949 • 10 nM delta EMV BV1060 • 150 nM gamma EMV BV950 • 5 μL of ‘PI/PI3K’ are added per well. • 5 μl ‘ATP’ are added per well to start the reaction. • The plates are then incubated at room temperature for 60 minutes (alfa, beta, delta) or 120 minutes (gamma). • The reaction is terminated by the addition of 10 μL Kinase-Glo (Promega Cat. No. #6714). • The assay plates are read after 10 minutes in Synergy 2 reader (BioTek, Vermont USA) with an integration time of 100 milliseconds and sensitivity set to 191. • Output: The High control is around 60′000 counts and the Low control is 30′000 or lower • This luminescence assay gives a useful Z′ ratio between 0.4 and 0.7
Two different constructs, BV 1052 and BV 1075, are used to generate the PI3 Kinase α proteins for compound screening.
PI3K alpha is purified in three chromatographic steps: immobilized metal affinity chromatography on a Ni Sepharose resin (GE Healthcare, belonging to General Electric Company, Fairfield, Conn., USA), gel filtration utilizing a Superdex 200 26/60 column (GE Healthcare), and finally a cation exchange step on a SP-XL column (GE Healthcare). All buffers are chilled to 4° C. and lysis is performed chilled on ice. Column fractionation is performed rapidly at room temperature.
IC50 is determined by a four parameter curve fitting routine that comes along with “excel fit”. A 4 Parameter logistic equation is used to calculate IC50 values (IDBS XLfit) of the percentage inhibition of each compound at 8 concentrations (usually 10, 3.0, 1.0, 0.3, 0.1, 0.030, 0.010 and 0.003 μM). Alternatively, IC50 values are calculated using idbsXLfit model 204, which is a 4 parameter logistic model.
Background: Kinase-Glo measures the ATP left after a reaction by luminescence.

Another series has as its target T2, PI3K delta (Homo sapiens, UniProt O00329).
T2 construct: for the full-length p110-d subunit are generated and fused by overlapping PCR; His tag (C); made in house; host or cells: baculovirus BV1060; Tn5 (Trichoplusia ni) or TiniPro insect cells
The series is described as follows: PI3K delta kinase assay (Kinase-Glo luminescence). The series is classed as biochemical. On the procedure:
as §1, §2, §3
PI3Kδ BV-1060 p85(iSH2)-Gly Linker-p110d(Full-Length)-C-Term His Tag
PI3K delta is purified in three chromatographic steps: immobilized metal affinity chromatography on a Ni Sepharose resin (GE Healthcare), gel filtration utilizing a Superdex 200 26/60 column (GE Healthcare), and finally a anion exchange step on a Q-HP column (GE Healthcare). All buffers are chilled to 4° C. and lysis is performed chilled on ice. Column fractionation is performed rapidly at room temperature. Typically frozen insect cells are lysed in a hypertonic lysis buffer and applied to a prepared IMAC column. The resin is washed with 3-5 column volumes of lysis buffer, followed by 3-5 column volumes wash buffer containing 45 mM imidazole, and the target protein is then eluted with a buffer containing 250 mM imidazole. Fractions are analyzed by Coomassie stained SDS-PAGE gels, and fractions containing the target protein are pooled and applied to a prepared GFC column. Fractions from the GFC column are analyzed by Coomassie stained SDS-PAGE gels, and fractions containing the target protein are pooled. The pool from the GFC column is diluted into a low salt buffer and applied to a prepared Q-HP column. The column is washed with low salt buffer until a stable A280 baseline absorbance is achieved, and eluted using a 20 column volume gradient from 0 mM NaCl to 500 mM NaCl. Again, fractions from the Q-HP column are analyzed by Coomassie stained SDS-PAGE gels, and fractions containing the target protein are pooled. The final pool is dialyzed into a storage buffer containing 50% glycerol and stored at −20° C. The final pool is assayed for activity in the phosphoinostitol kinase assay. […]

Values after ≈ are worked out from the molar mass of the structure shown. Like-named read-outs stand apart in the source and are kept apart here. Some results are limits rather than exact numbers.

T2 sequence (O00329 with tags, fused parts or gaps limits assumed): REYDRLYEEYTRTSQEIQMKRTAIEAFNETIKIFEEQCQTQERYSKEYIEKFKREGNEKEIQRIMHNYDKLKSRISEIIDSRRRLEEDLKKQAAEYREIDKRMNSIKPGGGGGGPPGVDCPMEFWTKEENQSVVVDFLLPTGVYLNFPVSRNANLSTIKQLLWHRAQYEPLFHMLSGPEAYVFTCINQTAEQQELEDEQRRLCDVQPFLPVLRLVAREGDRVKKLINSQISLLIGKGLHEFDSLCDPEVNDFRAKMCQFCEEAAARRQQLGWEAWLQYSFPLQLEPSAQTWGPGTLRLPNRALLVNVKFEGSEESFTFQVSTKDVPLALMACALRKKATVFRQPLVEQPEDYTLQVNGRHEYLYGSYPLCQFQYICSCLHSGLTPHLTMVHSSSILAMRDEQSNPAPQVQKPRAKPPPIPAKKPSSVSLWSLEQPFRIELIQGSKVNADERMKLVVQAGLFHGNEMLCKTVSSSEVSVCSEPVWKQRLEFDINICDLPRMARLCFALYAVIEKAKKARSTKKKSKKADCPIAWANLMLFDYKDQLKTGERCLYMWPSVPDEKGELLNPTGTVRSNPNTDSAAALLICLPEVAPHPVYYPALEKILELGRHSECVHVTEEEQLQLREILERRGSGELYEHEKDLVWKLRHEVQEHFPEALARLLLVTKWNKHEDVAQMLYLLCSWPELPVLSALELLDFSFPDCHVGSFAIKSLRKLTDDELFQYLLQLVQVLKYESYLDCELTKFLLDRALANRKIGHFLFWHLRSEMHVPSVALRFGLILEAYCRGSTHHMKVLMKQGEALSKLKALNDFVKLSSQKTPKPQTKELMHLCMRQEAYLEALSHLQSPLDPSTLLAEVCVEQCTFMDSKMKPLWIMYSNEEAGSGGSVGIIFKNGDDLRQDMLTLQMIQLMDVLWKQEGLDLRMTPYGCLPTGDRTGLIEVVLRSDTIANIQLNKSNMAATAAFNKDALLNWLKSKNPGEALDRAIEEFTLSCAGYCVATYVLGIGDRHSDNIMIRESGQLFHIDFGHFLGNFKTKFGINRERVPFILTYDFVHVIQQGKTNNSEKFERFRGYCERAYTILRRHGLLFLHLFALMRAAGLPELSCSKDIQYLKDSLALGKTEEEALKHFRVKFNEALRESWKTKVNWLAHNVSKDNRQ
T1 sequence (P42336 with tags, fused parts or gaps limits assumed): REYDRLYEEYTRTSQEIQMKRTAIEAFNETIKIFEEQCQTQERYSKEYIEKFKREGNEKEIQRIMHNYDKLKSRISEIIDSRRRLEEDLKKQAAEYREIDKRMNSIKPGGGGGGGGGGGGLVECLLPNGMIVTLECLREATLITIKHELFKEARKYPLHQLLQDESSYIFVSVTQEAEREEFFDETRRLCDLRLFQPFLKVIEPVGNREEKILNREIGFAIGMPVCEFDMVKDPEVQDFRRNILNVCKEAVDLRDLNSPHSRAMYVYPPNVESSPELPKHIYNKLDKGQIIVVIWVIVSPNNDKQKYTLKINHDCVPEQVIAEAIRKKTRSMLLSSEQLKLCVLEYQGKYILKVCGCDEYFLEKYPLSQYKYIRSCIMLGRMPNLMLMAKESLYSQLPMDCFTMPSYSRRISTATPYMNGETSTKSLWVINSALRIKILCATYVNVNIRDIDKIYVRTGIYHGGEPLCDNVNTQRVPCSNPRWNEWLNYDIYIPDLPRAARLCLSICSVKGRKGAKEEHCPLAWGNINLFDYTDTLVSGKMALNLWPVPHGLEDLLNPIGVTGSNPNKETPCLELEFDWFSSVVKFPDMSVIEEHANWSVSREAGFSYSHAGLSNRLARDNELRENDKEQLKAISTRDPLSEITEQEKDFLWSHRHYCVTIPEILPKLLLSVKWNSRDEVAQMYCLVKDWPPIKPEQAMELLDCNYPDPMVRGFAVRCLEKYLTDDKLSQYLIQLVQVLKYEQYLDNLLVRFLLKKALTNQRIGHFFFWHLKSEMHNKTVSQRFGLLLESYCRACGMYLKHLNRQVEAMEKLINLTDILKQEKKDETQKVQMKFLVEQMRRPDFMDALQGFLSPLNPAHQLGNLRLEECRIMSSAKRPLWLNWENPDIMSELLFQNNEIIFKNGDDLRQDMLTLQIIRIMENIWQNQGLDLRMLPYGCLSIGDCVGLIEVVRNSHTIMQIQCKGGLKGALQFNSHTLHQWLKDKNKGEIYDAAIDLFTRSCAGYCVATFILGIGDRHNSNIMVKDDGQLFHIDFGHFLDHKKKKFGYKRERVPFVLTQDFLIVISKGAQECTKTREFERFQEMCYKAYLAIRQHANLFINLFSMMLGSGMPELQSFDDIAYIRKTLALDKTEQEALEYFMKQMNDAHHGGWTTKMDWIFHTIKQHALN

On to `COc1ncccc1-n1c(=O)n(C)c2cnc3ccc(-c4ccc(C(N)=O)cc4)cc3c21` [Example 1.6, 4-[1-(2-Methoxy-pyridin-3-yl)-3-methyl-2-oxo-2,3-dihydro-1H-imidazo[4,5-c]quinolin-8-yl]-benzamide], for which the solubility thermodynamic in series [1] worked out at 2 µg/mL (≈ 4.7 µM). The IC50 came out at 17 nM at PI3K alfa (read-out: PI3Kalfa/IC50) and 163 nM on PI3K delta (read-out: PI3Kdelta/IC50).
For `Cc1ncccc1-n1c(=O)n(C)c2cnc3ccc(-c4ccc(C(N)=O)cc4)cc3c21` [Example 2.3, 4-[3-Methyl-1-(2-methyl-pyridin-3-yl)-2-oxo-2,3-dihydro-1H-imidazo[4,5-c]quinolin-8-yl]-benzamide] the same measures were 15 µg/mL (≈ 36.6 µM), 20 nM and 93 nM.
For `Cc1ncccc1-n1c(=O)n(C)c2cnc3ccc(-c4ccc(CO)nc4)cc3c21` [Example 2.6, 8-(6-Hydroxymethyl-pyridin-3-yl)-3-methyl-1-(2-methyl-pyridin-3-yl)-1,3-dihydro-imidazo[4,5-c]quinolin-2-one], in that order: 125 µg/mL (≈ 315 µM), 100 nM and 59 nM.
Regarding `Cc1ncccc1-n1c(=O)n(C)c2cnc3ccc(-c4ccc(N)nc4)cc3c21` [Example 2.7, 8-(6-Amino-pyridin-3-yl)-3-methyl-1-(2-methyl-pyridin-3-yl)-1,3-dihydro-imidazo[4,5-c]quinolin-2-one], in series [1], the solubility thermodynamic turned out to be 17 µg/mL (≈ 44.5 µM). The IC50 on PI3K alfa (read-out: PI3Kalfa/IC50) amounted to 18 nM; at PI3K delta (read-out: PI3Kdelta/IC50), 35 nM.
As to `Cc1ncccc1-n1c(=O)n(C)c2cnc3ccc(-c4ccc(OCCCN(C)C)nc4)cc3c21` [Example 2.10, 8-[6-(3-Dimethylamino-propoxy)-pyridin-3-yl]-3-methyl-1-(2-methyl-pyridin-3-yl)-1,3-dihydro-imidazo[4,5-c]quinolin-2-one], in series [1], the solubility thermodynamic was above 469 µg/mL. The IC50 at PI3K delta (read-out: PI3Kdelta/IC50) came to 855 nM.
`Cc1cccnc1-n1c(=O)n(C)c2cnc3ccc(-c4ccc(C(N)=O)cc4)cc3c21` [Example 3.3, 4-[3-Methyl-1-(3-methyl-pyridin-2-yl)-2-oxo-2,3-dihydro-1H-imidazo[4,5-c]quinolin-8-yl]-benzamide]: the solubility thermodynamic in series [1] was 5 µg/mL (≈ 12.2 µM). Moreover, the IC50 on PI3K alfa (read-out: PI3Kalfa/IC50) amounted to 51 nM; on PI3K delta (read-out: PI3Kdelta/IC50), 834 nM.
As for `CNC(=O)c1ccc(-c2ccc3ncc4c(c3c2)n(-c2ncccc2C)c(=O)n4C)cc1` [Example 3.5, N-Methyl-4-[3-methyl-1-(3-methyl-pyridin-2-yl)-2-oxo-2,3-dihydro-1H-imidazo[4,5-c]quinolin-8-yl]-benzamide], the solubility thermodynamic in series [1] amounted to 10 µg/mL (≈ 23.6 µM). Besides, on PI3K alfa (read-out: PI3Kalfa/IC50), the IC50 came to 53 nM.
For `CCOc1ccc(-c2ccc3ncc4c(c3c2)n(-c2ncccc2C)c(=O)n4C)cn1` [Example 3.6, 8-(6-Ethoxy-pyridin-3-yl)-3-methyl-1-(3-methyl-pyridin-2-yl)-1,3-dihydro-imidazo[4,5-c]quinolin-2-one], in that order: 20 µg/mL (≈ 48.6 µM) and 206 nM.
Turning to `Cc1cccnc1-n1c(=O)n(C)c2cnc3ccc(-c4ccc(CO)nc4)cc3c21` [Example 3.9, 8-(6-Hydroxymethyl-pyridin-3-yl)-3-methyl-1-(3-methyl-pyridin-2-yl)-1,3-dihydro-imidazo[4,5-c]quinolin-2-one], in series [1], the solubility thermodynamic is above 397 µg/mL. Further, the IC50 stood at 383 nM at PI3K alfa (read-out: PI3Kalfa/IC50) and 583 nM at PI3K delta (read-out: PI3Kdelta/IC50).
With `Cn1c(=O)n(-c2cccnc2)c2c3cc(-c4ccc(CO)nc4)ccc3ncc21` [Example 5.1, 8-(6-Hydroxymethyl-pyridin-3-yl)-3-methyl-1-pyridin-3-yl-1,3-dihydro-imidazo[4,5-c]quinolin-2-one], in series [1], the solubility thermodynamic was 15 µg/mL (≈ 39.1 µM). Also, the IC50 on PI3K alfa (read-out: PI3Kalfa/IC50) turned out to be 74 nM; on PI3K delta (read-out: PI3Kdelta/IC50), 88 nM.
For `CCOc1ccc(-c2ccc3ncc4c(c3c2)n(-c2ccc(N3CCNCC3)nc2OC)c(=O)n4C)cn1` [Example 9.1, 8-(6-Ethoxy-pyridin-3-yl)-1-(2-methoxy-6-piperazin-1-yl-pyridin-3-yl)-3-methyl-1,3-dihydro-imidazo[4,5-c]quinolin-2-one], in that order: 61 µg/mL (≈ 119 µM), 58 nM and 66 nM.
For `COc1nc(N2CCNCC2)ccc1-n1c(=O)n(C)c2cnc3ccc(-c4cnc(N)c(C(F)(F)F)c4)cc3c21` [Example 9.2, 8-(6-Amino-5-trifluoromethyl-pyridin-3-yl)-1-(2-methoxy-6-piperazin-1-yl-pyridin-3-yl)-3-methyl-1,3-dihydro-imidazo[4,5-c]quinolin-2-one], in that order: 13 µg/mL (≈ 23.6 µM), 18 nM and 15 nM.
Consider `Cc1nc(N2CCC2)ccc1-n1c(=O)n(C)c2cnc3ccc(-c4cncc(N5CCC5)c4)cc3c21` [Example 23.1, 1-(6-Azetidin-1-yl-2-methyl-pyridin-3-yl)-8-(5-azetidin-1-yl-pyridin-3-yl)-3-methyl-1,3-dihydro-imidazo[4,5-c]quinolin-2-one], for which, in series [1], the solubility thermodynamic was determined as 22 µg/mL (≈ 46.1 µM). For the same molecule, the IC50 at PI3K alfa (read-out: EPK_PI3Kalfa/IC50) is 14 nM; on PI3K delta (read-out: EPK_PI3Kdelta/IC50), 84 nM.
As for `CNc1ccc(-c2ccc3ncc4c(c3c2)n(-c2ccc(N3CCC3)nc2C)c(=O)n4C)cn1` [Example 23.4, 1-(6-Azetidin-1-yl-2-methyl-pyridin-3-yl)-3-methyl-8-(6-methylamino-pyridin-3-yl)-1,3-dihydro-imidazo[4,5-c]quinolin-2-one], the solubility thermodynamic in series [1] is 9 µg/mL (≈ 19.9 µM). Also, the IC50 came to 27 nM at PI3K alfa (read-out: EPK_PI3Kalfa/IC50) and 48 nM at PI3K delta (read-out: EPK_PI3Kdelta/IC50).
